# Paper PMC10786919, “Design-rules for stapled peptides with in vivo activity and their application to Mdm2/X antagonists” (Nature Communications, 2024)
# Positions of bridges follow the written chain, without caps; N, C: chain ends. Non-standard residues stand in square brackets, D forms with d. Residues, ends and D or L forms follow the SMILES beside them. Lys(N3) = [N-]=[N+]=NCCCC[C@H](N)C(=O)O; R8 = C=CCCCCCC[C@@](C)(N)C(=O)O; Cba = N[C@@H](CC1CCC1)C(=O)O; S5 = C=CCCC[C@](C)(N)C(=O)O; βAla = NCCC(=O)O; Sar = CNCC(=O)O
# Key:
# [1] = Lactate dehydrogenase (LDH) release assay; type: cell-based; settings: LDH: Cytotoxicity assay: EC50
# Summary of the method: (§1)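 Read-out was lactate dehydrogenase release, reflecting loss of membrane integrity, in reporter-engineered HCT116 cells (p53-responsive β-lactamase) seeded at 8000 cells per well. Final DMSO was 0.5%, and reported values are geometric means from three or more biological repeats.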
# [2] = Solubility assay (kinetic solubility, PBS pH 7); type: physicochemical; settings: pH 7, PBS; for solubility kinetic: pH 7, aqueous buffer, kinetic from dmso stock, read-out: Solubility
# Summary of the method: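 Quantitation uses an external standard at 100 µM, prepared from 10 mM stock in acetonitrile:methanol:DMSO (10:80:10). Solubility (µM) = (peak area of sample ÷ peak area of standard) × standard concentration.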
# [3] = EPSA; type: physicochemical
# [4] = Experimental LogD (partition coefficient); settings: for logD: not stated, Partition Coeff LogD
# [5] = test system: HCT116 cells; assay: Lactate dehydrogenase (LDH) release assay; type: cell-based
# Summary of the method: as §1
# [6] = test system: Ca Ski cell line; settings: 72 h
# Summary of the method: (§2)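 Compound dilution series (10 points, 3-fold, 10 mM top stock in DMSO) tested on overnight-plated Ca Ski cells in RPMI1640/10% FBS and on blasticidin-selected p53RE-bla HCT-116 cells in McCoy's 5A; read-out was CellTiter-Glo 2.0 luminescence after room-temperature equilibration.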
# [7] = test system: CellSensor p53RE-bla HCT-116 Cell Line; settings: 72 h
# Summary of the method: as §2
# [8] = in vitro; settings: Nanoclick permeability assay EC50
# Summary of the method: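 Azido-peptide permeability was read as loss of NanoBRET signal (donor 450 nm, acceptor 610 nm) after adding NanoBret618-azide at 10 μM final.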
# [9] = physchem
Compound,EC50 [1] [µM],solubility kinetic [2] [µM],EPSA ([3]; EPSA) [A^2],logD [4],LDH: Cytotoxicity assay: % Effect [5] [%],EPSA [3],EC50 [6] [µM],EC50 [7] [µM],cell entry EC50 [8] [µM],EPSA [9] [A^2],Solubility [2],Partition Coeff LogD [4]
CC(=O)N[C@@H](CC(C)C)C(=O)N[C@H](C(=O)N[C@@H](Cc1ccccc1)C(=O)NC(C)(C)C(=O)N[C@@H](CCC(=O)O)C(=O)N[C@@H](Cc1ccc(O)cc1)C(=O)N[C@H](Cc1c[nH]c2ccccc12)C(=O)N[C@@H](CCC(N)=O)C(=O)N[C@@H](CC(C)C)C(=O)N[C@@H](CC1CCC1)C(=O)NC(C)(C)C(=O)N[C@@H](CO)C(=O)N[C@@H](C)C(=O)N[C@@H](C)C(N)=O)[C@@H](C)O [MP-256],> 50,91.5,185,2.18,,,,,,,,
CC(=O)N[C@@H](CCCCN=[N+]=[N-])C(=O)NCC(=O)N[C@@H](CO)C(=O)NCC(=O)N[C@H](C(=O)N[C@@H](CO)C(=O)N[C@@H](Cc1ccccc1)C(=O)N[C@]1(C)CCCCCCC=CCCC[C@@](C)(C(=O)N[C@@H](CCC(=O)O)C(N)=O)NC(=O)[C@H](CC(C)C)NC(=O)[C@H](CC(C)C)NC(=O)[C@H](C)NC(=O)[C@H](Cc2c[nH]c3ccccc23)NC(=O)[C@H](Cc2ccc(O)cc2)NC(=O)[C@H](CCC(=O)O)NC1=O)[C@@H](C)O [MP-010],> 50,23,,2.07,19.63,Poorly Behaved,,,,,,
CC(=O)N[C@@H](CC(C)C)C(=O)N[C@H](C(=O)N[C@@H](Cc1ccccc1)C(=O)NC(C)(C)C(=O)N[C@@H](CCC(=O)O)C(=O)N[C@@H](Cc1ccc(O)cc1)C(=O)N[C@H](Cc1c[nH]c2ccccc12)C(=O)N[C@@H](C)C(=O)N[C@@H](CCC(N)=O)C(=O)N[C@@H](CC1CCC1)C(=O)NC(C)(C)C(=O)N[C@@H](CO)C(=O)N[C@@H](C)C(=O)N[C@@H](C)C(N)=O)[C@@H](C)O [MP-254],> 50,92.5,188,2.08,,,,,,,,
CC(=O)N[C@@H](CCCCN=[N+]=[N-])C(=O)NCCC(=O)N[C@@H](CCC(=O)O)C(=O)N[C@H](C(=O)N[C@@H](Cc1ccccc1)C(=O)N[C@]1(C)CCCCCCC=CCCC[C@@](C)(C(=O)N[C@@H](CO)C(=O)N[C@@H](C)C(=O)N[C@@H](C)C(N)=O)NC(=O)[C@H](CC2CCC2)NC(=O)[C@H](CCC(N)=O)NC(=O)[C@H](CCC(=O)O)NC(=O)[C@H](Cc2c[nH]c3ccccc23)NC(=O)[C@H](Cc2ccc(O)cc2)NC(=O)[C@H](CCC(=O)O)NC1=O)[C@@H](C)O [MP-65496] (Ac-[Lys(N3)][βAla]ETF[R8]EYWEQ[Cba][S5]SAA-NH2; staple 6-13),> 50.6,83.7,,1.98,2.338,,> 49.8,1.53,0.42,324,,
CC(=O)N(C)CC(=O)N(C)CC(=O)N(C)CC(=O)N(C)CC(=O)N(C)CC(=O)N(C)CC(=O)N(C)CC(=O)N(C)CC(=O)N[C@@H](CC(C)C)C(=O)N[C@H](C(=O)N[C@@H](Cc1ccccc1)C(=O)N[C@]1(C)CCCCCCC=CCCC[C@@](C)(C(=O)N[C@@H](CO)C(=O)N[C@@H](C)C(=O)N[C@@H](C)C(N)=O)NC(=O)[C@H](CC2CCC2)NC(=O)[C@H](CCC(N)=O)NC(=O)[C@H](C)NC(=O)[C@H](Cc2c[nH]c3ccccc23)NC(=O)[C@H](Cc2ccc(O)cc2)NC(=O)[C@H](CCC(=O)O)NC1=O)[C@@H](C)O [MP-623] (Ac-[Sar][Sar][Sar][Sar][Sar][Sar][Sar][Sar]LTF[R8]EYWAQ[Cba][S5]SAA-NH2; staple 12-19),> 50.7,150,200,2.41,3.314,,,,,,,
CC(=O)N[C@@H](CCCCN=[N+]=[N-])C(=O)NCCC(=O)N[C@@H](CC(N)=O)C(=O)N[C@H](C(=O)N[C@@H](Cc1ccccc1)C(=O)N[C@]1(C)CCCCCCC=CCCC[C@@](C)(C(=O)N[C@@H](CO)C(=O)N[C@@H](C)C(=O)N[C@@H](C)C(N)=O)NC(=O)[C@H](CC2CCC2)NC(=O)[C@H](CCC(N)=O)NC(=O)[C@H](CC(N)=O)NC(=O)[C@H](Cc2c[nH]c3ccccc23)NC(=O)[C@H](Cc2ccc(O)cc2)NC(=O)[C@H](CC(N)=O)NC1=O)[C@@H](C)O [MP-497],> 50.6,5,,2.49,3.16,,> 49.8,7.81,0.271,202,,
CC(=O)N[C@@H](CCCCN=[N+]=[N-])C(=O)NCCC(=O)N[C@H](C(=O)N[C@H](C(=O)N[C@@H](Cc1ccccc1)C(=O)N[C@]1(C)CCCCCCC=CCCC[C@@](C)(C(=O)N[C@@H](CO)C(=O)N[C@@H](C)C(=O)N[C@@H](C)C(N)=O)NC(=O)[C@H](CC2CCC2)NC(=O)[C@H](CCC(N)=O)NC(=O)[C@H]([C@@H](C)O)NC(=O)[C@H](Cc2c[nH]c3ccccc23)NC(=O)[C@H](Cc2ccc(O)cc2)NC(=O)[C@H]([C@@H](C)O)NC1=O)[C@@H](C)O)[C@@H](C)O [MP-5494] (Ac-[Lys(N3)][βAla]TTF[R8]TYWTQ[Cba][S5]SAA-NH2; staple 6-13),> 50.6,,,2.94,2.763,,> 49.8,0.679,0.457,199,,
CC(=O)N[C@@H](CCCCN=[N+]=[N-])C(=O)N[C@@H](CC(C)C)C(=O)N[C@H](C(=O)N[C@@H](Cc1ccccc1)C(=O)N[C@]1(C)CCCCCCC=CCCC[C@@](C)(C(=O)N[C@@H](CCC(=O)O)C(N)=O)NC(=O)[C@H](CC2CCC2)NC(=O)[C@H](CCC(N)=O)NC(=O)[C@H](C)NC(=O)[C@H](Cc2c[nH]c3ccccc23)NC(=O)[C@H](Cc2ccc(O)cc2)NC(=O)[C@H](CCC(=O)O)NC1=O)[C@@H](C)O [MP-4008] (Ac-[Lys(N3)]LTF[R8]EYWAQ[Cba][S5]E-NH2; staple 5-12),> 50,23,,2.48,-0.7368,Poorly Behaved,,,,,,
CC(C)C[C@H](NC(=O)[C@@H](N)CCCCN=[N+]=[N-])C(=O)N[C@H](C(=O)N[C@@H](Cc1ccccc1)C(=O)N[C@]1(C)CCCCCCC=CCCC[C@@](C)(C(=O)N[C@@H](CCC(=O)O)C(N)=O)NC(=O)[C@H](CC2CCC2)NC(=O)[C@H](CCC(N)=O)NC(=O)[C@H](C)NC(=O)[C@H](Cc2c[nH]c3ccccc23)NC(=O)[C@H](Cc2ccc(O)cc2)NC(=O)[C@H](CCC(=O)O)NC1=O)[C@@H](C)O [MP-4009] (H-[Lys(N3)]LTF[R8]EYWAQ[Cba][S5]E-NH2; staple 5-12),> 50,,,,-2.907,Poorly Behaved,,,,,Poorly Behaved,Poorly Behaved
CC(=O)N[C@H](C)C(=O)N[C@H](C)C(=O)N[C@H](C)C(=O)N[C@H](C)C(=O)N[C@H](C)C(=O)N[C@H](C)C(=O)N[C@H](C)C(=O)N[C@H](C)C(=O)N[C@@H](CC(C)C)C(=O)N[C@H](C(=O)N[C@@H](Cc1ccccc1)C(=O)N[C@]1(C)CCCCCCC=CCCC[C@@](C)(C(=O)N[C@@H](CO)C(=O)N[C@@H](C)C(=O)N[C@@H](C)C(N)=O)NC(=O)[C@H](CC2CCC2)NC(=O)[C@H](CCC(N)=O)NC(=O)[C@H](C)NC(=O)[C@H](Cc2c[nH]c3ccccc23)NC(=O)[C@H](Cc2ccc(O)cc2)NC(=O)[C@H](CCC(=O)O)NC1=O)[C@@H](C)O [MP-414] (Ac-[dA][dA][dA][dA][dA][dA][dA][dA]LTF[R8]EYWAQ[Cba][S5]SAA-NH2; staple 12-19),> 50.7,35,210,2.65,-4.321,,,,,,,
CC(=O)N[C@@H](CCCCN=[N+]=[N-])C(=O)NCCC(=O)N[C@@H](CCC(N)=O)C(=O)N[C@H](C(=O)N[C@@H](Cc1ccccc1)C(=O)N[C@]1(C)CCCCCCC=CCCC[C@@](C)(C(=O)N[C@@H](CO)C(=O)N[C@@H](C)C(=O)N[C@@H](C)C(N)=O)NC(=O)[C@H](CC2CCC2)NC(=O)[C@H](CCC(N)=O)NC(=O)[C@H](CCC(N)=O)NC(=O)[C@H](Cc2c[nH]c3ccccc23)NC(=O)[C@H](Cc2ccc(O)cc2)NC(=O)[C@H](CCC(N)=O)NC1=O)[C@@H](C)O [MP-5498] (Ac-[Lys(N3)][βAla]QTF[R8]QYWQQ[Cba][S5]SAA-NH2; staple 6-13),> 50.6,19.7,,2.6,8.092,,38.3,6.24,0.0494,198,,
CC[C@H](C)[C@H](NC(=O)CCNC(=O)[C@H](CCCCN=[N+]=[N-])NC(C)=O)C(=O)N[C@H](C(=O)N[C@@H](Cc1ccccc1)C(=O)N[C@]1(C)CCCCCCC=CCCC[C@@](C)(C(=O)N[C@@H](CO)C(=O)N[C@@H](C)C(=O)N[C@@H](C)C(N)=O)NC(=O)[C@H](CC2CCC2)NC(=O)[C@H](CCC(N)=O)NC(=O)[C@H]([C@@H](C)CC)NC(=O)[C@H](Cc2c[nH]c3ccccc23)NC(=O)[C@H](Cc2ccc(O)cc2)NC(=O)[C@H]([C@@H](C)CC)NC1=O)[C@@H](C)O [MP-491] (Ac-[Lys(N3)][βAla]ITF[R8]IYWIQ[Cba][S5]SAA-NH2; staple 6-13),> 50.6,,,4.61,-1.101,,> 49.8,1.32,0.237,196,,
